#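 Cultured in 96-well plates, cells were exposed to test compound for 48 hours across five concentrations. GI50 is the concentration that inhibits growth by half. TGI: concentration producing complete growth inhibition.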
# Key:
# Test in all cases: NCI tumour cell line growth inhibition, 48 h
# [1] = tested on: COLO 205 colon
# [2] = tested on: EKVX NSCLC
# [3] = tested on: HCT-15 colon
# [4] = tested on: HL-60(TB) leukemia
# [5] = tested on: OVCAR-8 ovarian
# [6] = tested on: SF-539 CNS
# [7] = tested on: SK-MEL-2 melanoma
# [8] = tested on: U251 CNS
# [9] = tested on: RPMI-8226 leukemia
# [10] = tested on: SNB-75 CNS
SMILES,GI50 [1],TGI [1],GI50 [2],TGI [2],GI50 [3],TGI [3],GI50 [4],TGI [4],GI50 [5],TGI [5],GI50 [6],TGI [6],GI50 [7],TGI [7],GI50 [8],TGI [8],GI50 [9],TGI [9],GI50 [10],TGI [10]
COc1ccc2c(c1)sc1nc(-c3ccccc3)c(-c3ccsc3)n12,2.26 µM,6.38 µM,7.76 µM,> 100 µM,2.91 µM,> 100 µM,3.95 µM,92.7 µM,5.95 µM,> 100 µM,2.62 µM,> 100 µM,9.72 µM,> 100 µM,3.72 µM,> 100 µM,–,–,–,–
COc1cc(/C=C/c2cc(C(F)(F)F)[nH]c(=O)n2)ccc1OCc1ccccc1F,19.1 µM,33.9 µM,–,–,5.22 µM,28.3 µM,9.25 µM,68.2 µM,8.85 µM,48.8 µM,3.68 µM,13.8 µM,12.1 µM,28.2 µM,5.23 µM,18.5 µM,3.85 µM,27.1 µM,21 µM,56.7 µM
O=c1oc2ccccc2c(O)c1/C=N\c1nc(-c2ccccc2)cs1,–,11.5 µM,–,42.6 µM,–,–,–,4.01 µM,–,> 100 µM,–,6.39 µM,–,36 µM,–,24.9 µM,–,39.5 µM,–,21.6 µM
C=CCn1c(C)nc2cc(Nc3nc(Nc4ccc5nc(C)n(CC=C)c5c4)c4ccccc4n3)ccc21,–,–,–,–,–,–,1.7 µM,4.13 µM,0.229 µM,0.535 µM,1.03 µM,2.22 µM,–,–,–,–,1.24 µM,3.93 µM,0.745 µM,2.3 µM
Cc1nc(N)sc1C(=O)/C=C/c1ccc(/C=C/C(=O)c2sc(NC(=O)CCCCCCCCC(=O)Nc3nc(C)c(C(=O)/C=C/c4ccc(/C=C/C(=O)c5sc(N)nc5C)cc4)s3)nc2C)cc1,–,> 100 µM,–,> 100 µM,–,> 100 µM,–,> 100 µM,–,> 100 µM,–,> 100 µM,–,> 100 µM,–,> 100 µM,–,–,–,–
CC(=O)NC1=N/C(=C/c2cc([N+](=O)[O-])ccc2O)CN1C,–,> 100 µM,–,> 100 µM,–,> 100 µM,–,> 100 µM,–,> 100 µM,–,> 100 µM,–,> 100 µM,–,> 100 µM,–,–,–,> 100 µM
O=[N+]([O-])c1c(/C=N/Nc2ccccc2)oc(-c2ccc3c(c2)OCO3)c1-c1ccc2c(c1)OCO2,–,> 100 µM,–,> 100 µM,–,–,–,33.5 µM,–,> 100 µM,–,> 100 µM,–,24.2 µM,–,–,–,24.2 µM,–,> 100 µM
O=c1cc(-c2ccccc2)[nH]c2cc(Cl)cc(Cl)c12,–,> 100 µM,–,–,–,> 100 µM,–,> 100 µM,–,83.5 µM,–,> 100 µM,–,> 100 µM,–,> 100 µM,–,> 100 µM,–,30 µM
CCOC(=O)CCC(=O)C1c2cccc(O)c2C(=O)c2c(O)cccc21,–,3.95 µM,–,–,–,–,–,0.657 µM,–,3.4 µM,–,1.63 µM,–,–,–,1.53 µM,–,–,–,2.33 µM
N#CCCc1nc2ccc(Br)cc2c(=O)n1CCO,–,> 100 µM,–,> 100 µM,–,> 100 µM,–,> 100 µM,–,> 100 µM,–,> 100 µM,–,> 100 µM,–,–,–,> 100 µM,–,> 100 µM
O=c1cc(-c2ccccc2)[nH]c2cccc(S)c12,–,19.2 µM,–,> 100 µM,–,> 100 µM,–,> 100 µM,–,2.37 µM,–,0.594 µM,–,–,–,11.4 µM,–,> 100 µM,–,–
CCCC(=O)c1c(NOC2OC(COC(C)=O)C(OC(C)=O)C(OC(C)=O)C2OC(C)=O)nc(OC)n(C)c1=O (configuration not stated),–,> 100 µM,–,> 100 µM,–,> 100 µM,–,–,–,> 100 µM,–,> 100 µM,–,> 100 µM,–,> 100 µM,–,–,–,> 100 µM
c1cnc2c(c1)-n1cccc1C1(CCSCC1)NN2,–,> 100 µM,–,> 100 µM,–,> 100 µM,–,> 100 µM,–,> 100 µM,–,> 100 µM,–,> 100 µM,–,–,–,> 100 µM,–,> 100 µM
CC1=C2C(O)C(C(C)CO)C(O)CC2(C)C(O)CC1 (configuration not stated),–,> 100 µM,–,> 100 µM,–,> 100 µM,–,> 100 µM,–,> 100 µM,–,> 100 µM,–,–,–,> 100 µM,–,> 100 µM,–,> 100 µM
CC(=O)CC1CCC(=O)CCC(=O)OC(CC(C)=O)CCC(=O)CCC(=O)O1 (configuration not stated),–,> 100 µM,–,> 100 µM,–,> 100 µM,–,> 100 µM,–,> 100 µM,–,> 100 µM,–,–,–,> 100 µM,–,> 100 µM,–,> 100 µM
COc1cc(OC2OC(C)C(O)C(O)C2O)cc2oc(-c3ccc(O)cc3)c(CC=C(C)C)c(=O)c12 (configuration not stated),10 µM,22.1 µM,25.6 µM,99.4 µM,16.8 µM,52.1 µM,3.5 µM,16.2 µM,32.3 µM,> 100 µM,19.5 µM,44.2 µM,35.9 µM,> 100 µM,–,–,9.02 µM,26.6 µM,1.69 µM,17.5 µM
COc1cc(OC)c(/C=C/c2ccc3ccccc3[n+]2C)c(OC)c1,0.208 µM,0.465 µM,–,–,12.8 µM,> 100 µM,0.363 µM,2.92 µM,0.507 µM,6.48 µM,0.422 µM,5.78 µM,1.13 µM,3.06 µM,0.323 µM,8.97 µM,0.281 µM,2.24 µM,0.586 µM,12.4 µM
CCOc1ccccc1NC(=O)/C=C1\NC(=O)CS1,–,> 100 µM,–,> 100 µM,–,–,–,> 100 µM,–,> 100 µM,–,> 100 µM,–,> 100 µM,–,> 100 µM,–,> 100 µM,–,98.7 µM
COC1=CC23C=CC1[C@@H](c1ccccc1)C2=C(C)C(=O)N3C(=O)NC1CCCCC1 (some centres not stated),–,–,–,> 100 µM,–,29.1 µM,–,> 100 µM,–,64.6 µM,–,39.2 µM,–,39.5 µM,–,35.4 µM,–,–,–,> 100 µM
COc1ccc2c(c1)C(=O)CC(N)C2 (configuration not stated),–,> 100 µM,–,> 100 µM,–,> 100 µM,–,> 100 µM,–,> 100 µM,–,–,–,> 100 µM,–,> 100 µM,–,> 100 µM,–,> 100 µM
